Data as given in patent publication US9107816B2, “Implantable device for controlled dissolution and diffusion of low solubility drug” (TARIS BIOMEDICAL LLC, priority 2011, dated 2015).

Test: In vitro release of mitomycin C from housing module (100% MMC tablets)
Format: physicochemical
Conditions: 100% MMC tablet, one face exposed, 20 mL deionized water at 37° C., replenished daily, 8 days, n=3, FIG. 43
Experimental: The diameter of the tablets was either 2.1 mm or 2.6 mm with the height of 2 mm. The mass of the tablet was approximately 10 mg for 2.1 mm diameter tablet and 16 mg for 2.6 mm diameter tablet.
Housing modules were made from segments of silicone tube and silicone adhesive. […] The surface ‘b’ of tablet 402 was surrounded by silicone tube 406 and the surface ‘c’ was in contact with silicone adhesive 408.
Specifically, the housing module 400 was submerged in 20 mL deionized water at 37° C., with the release medium being entirely replenished daily during the test period. The cumulative release of MMC was measure over the test period. In vitro release data is shown in FIG. 43 (n=3; the error bars indicate S.D. around the mean.) (Some error bars are not shown, i.e., when they are smaller than the symbols.).

CO[C@@]12[C@H](COC(N)=O)C3=C(C(=O)C(C)=C(N)C3=O)N1C[C@@H]1N[C@@H]12 [MMC, mitomycin C]
cumulative release of MMC (release kinetics): near zero order release was achieved until the tablet was all eroded
